What was measured:
HUVEC cells [1] = assay: Electric-field-induced reorientation of endothelial cells (orientation index Oi); type: cell-based; settings: for orientation response in EF (in words): inhibitors 50 μM (latrunculin 50 nM), 1 hour before and during EF
Method: A series of images was taken with an image analyser immediately before EF exposure and at 4, 8 and 24 hours of EF exposure. Cell orientation was quantified as an orientation index (Oi), which is defined as Oi=cos2 (a), where a is the angle formed by the long axis of a cell with a line drawn perpendicular to the field lines. A cell with its long axis parallel to the vector of the EF will have an Oi of −1, and a cell with its long axis exactly perpendicular to the EF vector will have an Oi of +1. A randomly oriented population of cells will have an average Oi {defined as [Σn cos2(α)]+n} of 0. The significance of this two-dimensional orientation distribution against randomness was calculated using Rayleigh's distribution. A long:short axis ratio was calculated for assessment of elongation.
Cell alignment was quantified using an orientation index Oi=cos2(α), where a is the angle formed between the long axis of a cell and a line drawn perpendicular to the field lines. In cells oriented perpendicular to the field vector, the Oi is +1, cells parallel to the field vector give an Oi of −1 and random orientation gives an Oi of 0.

HUVEC cells [2] = assay: Electric-field-induced elongation of endothelial cells (long:short axis ratio); type: cell-based
Method: HUVEC cells were seeded in a trough formed by two parallel (1 cm apart) strips of glass coverslip (No. 1, length of 22 mm) fixed to the base of the dish with silicone grease. Scratch lines were made perpendicular to the long axis of the chamber with a fine sterile needle and used as reference marks for directed cell migration. Cells were incubated for 24-48 hours (37° C., 5% CO2) before a roof coverslip was applied and sealed with silicone grease. The final dimensions of the chamber, through which current was passed, were 22×10×0.2 mm. Agar-salt bridges not less than 15 cm long were used to connect silver/silver-chloride electrodes in beakers of Steinberg's solution (58 mM NaCl, 0.67 mM KCl, 0.44 mM Ca(NO3)2, 1.3 mM MgSO4, 4.6 mM Trizma base, pH 7.8-8.0), to pools of excess culture medium at either side of the chamber. Field strengths were measured directly at the beginning of, the end of and during each experiment. No fluctuations in field strength were observed. […] (50 μM), the Rho kinase inhibitor Y27632 (50 μM), both Akt and Rho kinase inhibitors (10 μM each) or latrunculin (50 nM) for 1 hour before EF stimulation. The same concentration of drug was present during EF exposure in a CO2 incubator.
A series of images was taken with an image analyser immediately before EF exposure and at 4, 8 and 24 hours of EF exposure. Cell orientation was quantified as an orientation index (Oi), which is defined as Oi=cos2 (a), where a is the angle formed by the long axis of a cell with a line drawn […] to the field lines. A cell with its long axis parallel to the vector of the EF will have an Oi of −1, and a cell with its long axis exactly perpendicular to the EF vector will have an Oi of +1. […] The significance of this two-dimensional orientation distribution against randomness was calculated using Rayleigh's distribution. A long:short axis ratio was calculated for assessment of elongation.
HUVEC cells elongated dramatically in an EF. […] We quantified the elongation of the cells using a long:short axis ratio. […]

[3] = system: HaCaT human keratinocytes; assay: Scratch assay, HaCaT keratinocyte migration, Example 3; settings: catalase over-expression; 5 mM N-acetylcysteine 1 h pretreatment; 50 nM IGF-1R inhibitor
Method: Cell culture—Immortalized HaCaT human keratinocytes were grown in Dulbecco's low-glucose modified Eagle's medium (Life Technologies, Gaithersburg, MD, U.S.A.) supplemented with 10% fetal bovine serum, 100 U/ml penicillin, and 100 g/ml streptomycin. The cells were maintained in a standard culture incubator with humidified air containing 5% CO2 at 37° C.
Scratch assay—A cell migration assay was performed using culture inserts (IBIDI®, Verona, WI) according to the manufacturer's instructions. Cell migration was measured using time-lapse phase-contrast microscopy following withdrawal of the insert. Images were analyzed using the AxioVision Rel 4.8 software.
N-Acetyl Cysteine Treatment—Cells were pretreated with 5 mM of the thiol antioxidant N-acetylcysteine (Sigma) for 1 h before start of the scratch assay.
IGF-1R inhibition—When applicable, cells were preincubated with 50 nM IGF-1R inhibitor, picropodophyllin (Calbiochem, MA) just prior to the Scratch Assay.
Catalase gene delivery—HaCaT cells were transfected with 2.3×10^7 pfu AdCatalase or with the empty vector as control in 750 μL of media. Subsequently, 750 μL of additional media was added 4 h later and the cells were incubated for 72 h.

Compound | orientation response in EF (in words) (HUVEC cells [1]) | long:short axis ratio / elongation response in EF-treated cells (in words) (HUVEC cells [2]) | effect on the increased migration triggered by LLEC [3] | also measured
C/C1=C/C(=O)O[C@@H]2C[C@@H](CC[C@H](C)/C=C\C=C\CC1)O[C@@](O)([C@@H]1CSC(=O)N1)C2 [Latrunculin A] | suppressed the orientation response significantly | completely abolished the EF-induced elongation response |  | 
CC(=O)N[C@@H](CS)C(=O)O [N-Acetyl Cysteine] |  |  | failed to reproduce the increased migration | 
COc1cc2ncnc(Nc3ccc(Cl)cc3F)c2cc1OC [VEGFR inhibitor, 4-[(4′-chloro-2′-fluoro)phenylamino]-6,7-dimethoxyquinazoline] | completely abolished the reorientation |  |  | 
C[C@@H](N)[C@H]1CC[C@H](C(=O)Nc2ccncc2)CC1 [Y27632] |  | significantly decreased the long:short axis ratio |  | orientation index Oi (HUVEC cells [1]; value in sentence on U0126 (50 μM)): 0.33±0.03
COc1cc([C@@H]2c3cc4c(cc3[C@H](O)[C@H]3COC(=O)[C@@H]23)OCO4)cc(OC)c1OC [IGF-1R inhibitor, picropodophyllin] |  |  | attenuated the increased keratinocyte migration | 
catalase |  |  | attenuated the increased migration | 
N#CC(=C(/N)Sc1ccccc1N)/C(C#N)=C(\N)Sc1ccccc1N [U0126] | decreased the orientation to a similar extent |  |  | 
1-L-6-hydroxymethyl-chiro-inositol 2-[(R)-2-O-methyl-3-O-octadecylcarbonate] [Akt inhibitor] | significantly decreased the orientation response | significantly decreased the long:short axis ratio |  | 
